# Counter-ions that a name gives are not always drawn.
# Biological target: recombinant human CYP17 enzyme (Homo sapiens (Human), UniProt P05093)
# Experiment: Cytochrome P450, 17-20 lyase (CYP17-lyase) assay, tritiated acetic acid release from 17-α-hydroxy pregnenolone [21-3H]
# Assay type: biochemical
# Settings: human CYP17, substrate 0.25 μM; read-out: Lyase IC 50 nM Human/Rat (Human)
# From the text: Assay method was adopted from a published protocol with some modifications to suit our requirements (Dmitry N Grigoryev et al, Analytical Biochemistry, (1999) 267, 319-330). […] Chloroform extraction removes the radioactive steroids and acetic acid is taken into aqueous layer. The tritiated acetic acid released in the assay thus extracted is quantified to determine the enzyme activity. […] The purified cell membrane preparations were used as the source for Human CYP17 enzyme. […] O, Nijar, et al., J Med Chem, (1998) 41, 902-912). […] Km for this substrate was determined by monitoring the tritiated acetic acid release as a function of substrate concentration. […] For the Km determination, the data was fit to a hyperbolic equation (Graphpad Prism® software IV). […] (Dmitry N. Grigoryev et al, Analytical Biochemistry (1999) 267, 319-330) […] NADPH is used at a final concentration of 4.2 mM. Total reaction volume was made up to 50 μL with 50 mM Phosphate buffer pH 7.5. The reaction mixture was incubated at room temperature for 90 minutes with gentle shaking. The reaction was stopped by the addition of 100 μL of buffer. 500 μL of 5% freshly prepared activated charcoal was added to the solution and mixed well by vortexing. The samples were centrifuged at 17568×g for 5 minutes. (14000 rpm). The supernatant was carefully transferred to fresh tube and 1.3 mL of scintillation fluid was added, mixed by vortexing. The radioactivity was measured in a 1450 MicroBeta TriLux™ scintillation counter from Wallac-Perkin Elmer®, USA. The measurements were carried out in 2.0 mL Eppendorforf™ tubes. […] The amount of tritiated acetic acid released is proportional to the lyase activity. Percent lyase activity in presence of inhibitor was calculated using the formula given below. […] Enzyme reaction in presence of inhibitor. • Positive control: […] For IC50 determination, the % inhibition was plotted as a function of inhibitor concentration. The data was fitted to sigmoidal equation using Graphpad Prism® software IV to generate IC50 values.
# Sequence of recombinant human CYP17 enzyme (P05093 whole entry): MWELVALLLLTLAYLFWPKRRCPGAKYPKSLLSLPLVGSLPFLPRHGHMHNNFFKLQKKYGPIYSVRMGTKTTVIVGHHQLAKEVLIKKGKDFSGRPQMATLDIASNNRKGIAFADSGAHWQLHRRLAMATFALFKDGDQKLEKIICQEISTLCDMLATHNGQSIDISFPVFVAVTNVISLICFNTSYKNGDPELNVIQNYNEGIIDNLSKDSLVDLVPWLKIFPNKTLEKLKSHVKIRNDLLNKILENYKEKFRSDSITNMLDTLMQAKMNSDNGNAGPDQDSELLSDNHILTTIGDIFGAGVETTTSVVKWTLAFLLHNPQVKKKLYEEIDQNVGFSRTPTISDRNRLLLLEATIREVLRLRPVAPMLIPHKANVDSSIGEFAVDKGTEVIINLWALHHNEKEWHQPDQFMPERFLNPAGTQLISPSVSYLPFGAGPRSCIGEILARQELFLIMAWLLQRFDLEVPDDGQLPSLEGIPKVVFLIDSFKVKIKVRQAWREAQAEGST
row,SMILES,IC50
1,"Cc1cc(N2CCN(c3cnccc3C)C2=O)ccn1 [Example 100A, 1-(4-Methyl-pyridin-3-yl)-3-(2-methyl-pyridin-4-yl)-imidazolidin-2-one]",46 nM
2,"Cc1ccncc1N1CCN(c2ccc(F)c(C(F)F)c2)C1=O [Example 91A, 1-(3-Difluoromethyl-4-fluoro-phenyl)-3-(4-methyl-pyridin-3-yl)-imidazolidin-2-one]",4.3 nM
3,"Cc1ccncc1N1CCN(c2csc3ccnc(Cl)c23)C1=O [Example 99A, 1-(4-Chloro-thieno[3,2-c]pyridin-3-yl)-3-(4-methyl-pyridin-3-yl)-imidazolidin-2-one]",22 nM
4,Cc1cn2cc(N3CCN(c4cnccc4C)C3=O)ccc2n1 [Example 104A],1990 nM
5,"Cc1cc(Cl)ccc1N1CCN(c2cnccc2C)C1=O [Example 89A, 1-(4-Chloro-2-methyl-phenyl)-3-(4-methyl-pyridin-3-yl)-imidazolidin-2-one]",326 nM
6,"Cc1ccncc1N1CCN(c2ccc(Cl)c(F)c2)C1=O [Example 54A, 1-(4-Chloro-3-fluoro-phenyl)-3-(4-methyl-pyridin-3-yl)-imidazolidin-2-one]",15 nM
7,"Cc1ccncc1-n1ccn(-c2ccc(F)c(C(F)F)c2)c1=O [Example 91B, 1-(3-Difluoromethyl-4-fluoro-phenyl)-3-(4-methyl-pyridin-3-yl)-1,3-dihydro-imidazol-2-one]",22 nM
8,"Cc1nc2ccc(N3CCN(c4cnccc4C)C3=O)cc2s1 [Example 105A, 1-(2-Methyl-benzothiazol-6-yl)-3-(4-methyl-pyridin-3-yl)-imidazolidin-2-one]",1470 nM
9,"O=C1N(c2ccc3ncsc3c2)CCN1c1cnccc1CO [Example 126A, 1-Benzothiazol-6-yl-3-(4-hydroxymethyl-pyridin-3-yl)-imidazolidin-2-one]",25 nM
10,"Cc1ccncc1N1CCN(c2cnc3[nH]cnc3c2)C1=O [Example 122A, 1-(3H-Imidazo[4,5-b]pyridin-6-yl)-3-(4-methyl-pyridin-3-yl)-imidazolidin-2-one Trifluoroacetic Acid]",383 nM
11,"Cc1ccncc1N1CCN(c2ccc3c(N)n[nH]c3c2)C1=O [Example 123A, 1-(3-Amino-1H-indazol-6-yl)-3-(4-methyl-pyridin-3-yl)-imidazolidin-2-one]",10 nM
12,"Cc1ccncc1N1CCN(c2ccc(F)c(F)c2)C1=O [Example 45A, 1-(3,4-Difluoro-phenyl)-3-(4-methyl-pyridin-3-yl)-imidazolidin-2-one]",27 nM
13,Cc1ccncc1N1CCN(c2ccc(C(F)(F)F)cc2)C1=O [Example 50A],51 nM
14,"Cc1ccncc1N1CCN(c2cc3c(Cl)nccc3s2)C1=O [Example 98A, 1-(4-chloro-thieno[3,2-c]pyridin-2-yl)-3-(4-methyl-pyridin-3-yl)-imidazolidin-2-one]",18 nM
15,"Cc1ccc(N2CCN(c3cnccc3C)C2=O)s1 [Example 15A, 1-(4-Methyl-pyridin-3-yl)-3-(5-methyl-thiophen-2-yl)-imidazolidin-2-one]",10 nM
16,"Cc1ccncc1N1CCN(c2ccc3c(c2)OCCO3)C1=O [Example 49A, 1-(2,3-Dihydro-benzo[1,4]dioxin-6-yl)-3-(4-methyl-pyridin-3-yl)-imidazolidin-2-one]",30 nM
17,"Cc1ccncc1N1CCN(c2ccc3c(cnn3C)c2)C1=O [Example 114A, 1-(1-Methyl-1H-indazol-5-yl)-3-(4-methyl-pyridin-3-yl)-imidazolidin-2-one]",24 nM
18,"Cc1cc(N2CCN(c3cnccc3C)C2=O)ccc1F [Example 59A, 1-(4-Fluoro-3-methyl-phenyl)-3-(4-methyl-pyridin-3-yl)-imidazolidin-2-one]",17 nM
19,Cc1ccncc1N1CCN(c2ccnc(N)c2)C1=O [Example 76A],192 nM

# Now from value to molecule:
row,IC50,SMILES
1,2.7 nM,"Cc1ccncc1N1CCN(c2ccc(C(F)(F)F)s2)C1=O [Example 155A, 1-(4-Methylpyridin-3-yl)-3-(5-(trifluoromethyl)thiophen-2-yl)-imidazolidin-2-one]"
2,7 nM,"Nc1ccncc1N1CCN(c2ccc3ncsc3c2)C1=O [Example 152A, 1-(4-Amino-pyridin-3-yl)-3-benzothiazol-6-yl-imidazolidin-2-one Hydrochloride Salt]"
3,174 nM,"Cc1ccncc1N1CCN(c2ccc3cc[nH]c3c2)C1=O [Example 144A, 1-(1H-Indol-6-yl)-3-(4-methyl-pyridin-3-yl)-imidazolidin-2-one]"
4,1150 nM,"Cc1ccncc1N1C(=O)N(c2ccc3ncsc3c2)CC1(C)C [Example 165A, 1-Benzothiazol-6-yl-4,4-dimethyl-3-(4-methyl-pyridin-3-yl)-imidazolidin-2-one]"
5,13 nM,"Cc1ccncc1N1CCN(c2ccc3c(c2)CCC3)C1=O [Example 138A, 1-Indan-5-yl-3-(4-methyl-pyridin-3-yl)-imidazolidin-2-one]"
6,103 nM,"Cc1cccc(N2CCN(c3cnccc3C(F)(F)F)C2=O)c1 [Example 131A, 1-m-Tolyl-3-(4-trifluoromethyl-pyridin-3-yl)-imidazolidin-2-one]"
7,38 nM,"Cc1ccncc1N1C(=O)N(c2ccc3ncsc3c2)CC1C (centres unmarked) [Example 167A, 1-Benzothiazol-6-yl-4-methyl-3-(4-methyl-pyridin-3-yl)-imidazolidin-2-one]"
8,13.3 nM,"Cc1c(Cl)cncc1N1CCN(c2ccc3ncsc3c2)C1=O [Example 151A, 1-Benzothiazol-6-yl-3-(5-chloro-4-methyl-pyridin-3-yl)-imidazolidin-2-one]"
9,195 nM,"Cn1cncc1N1CCN(c2ccc3ncsc3c2)C1=O [Example 188A, 3-Benzothiazol-6-yl-3′-methyl-4,5-dihydro-3H,3′H-[1,4]biimidazolyl-2-one]"
10,384 nM,"CCc1cn(-c2ccc3ncsc3c2)c(=O)n1-c1cnccc1C [Example 168A, 1-Benzothiazol-6-yl-4-ethyl-3-(4-methyl-pyridin-3-yl)-1,3-dihydro-imidazol-2-one]"
11,202 nM,N#Cc1ccncc1N1CCN(c2ccc3ncsc3c2)C1=O [Example 129A]
12,83 nM,"Cc1ccncc1-n1ccn(-c2ccc3sccc3c2)c1=O [Example 139A, 1-Benzo[b]thiophen-5-yl-3-(4-methyl-pyridin-3-yl)-1,3-dihydro-imidazol-2-one]"
13,950 nM,"Cc1ccncc1N1CCN(c2ccc3c(ccn3C)c2)C1=O [Example 134A, 1-(1-Methyl-1H-indol-5-yl)-3-(4-methyl-pyridin-3-yl)-imidazolidin-2-one]"
14,25 nM,"Cc1ccncc1N1CCN(c2ccnc(C(F)(F)F)c2)C1=O [Example 148A, 1-(4-Methyl-pyridin-3-yl)-3-(2-trifluoromethyl-pyridin-4-yl)-imidazolidin-2-one]"
15,21 nM,"Cc1ccncc1-n1ccn(-c2ccc3ncsc3c2)c1=O [Example 142A, 1-Benzothiazol-6-yl-3-(4-methyl-pyridin-3-yl)-1,3-dihydro-imidazol-2-one]"

# Same assay, conditions: human CYP17, substrate 0.25 μM; read-out: Lyase IC 50 Human/Rat (Human)
row,SMILES,IC50
1,"Cc1ccc(N2CCN(c3ccc4ncsc4c3)C2=O)cn1 [Example 127A, 1-Benzothiazol-6-yl-3-(6-methyl-pyridin-3-yl)-imidazolidin-2-one]",> 10000 nM
2,"Cc1ccncc1N1CCN(c2cc3cnccc3s2)C1=O [Example 120A, 1-(4-Methyl-pyridin-3-yl)-3-thieno[3,2-c]pyridin-2-yl-imidazolidin-2-one]",4000 nM

# Other lines, results leading:
row,IC50,SMILES
1,> 10000 nM,"O=C1N(c2ccc3ncsc3c2)CCN1c1ccccn1 [Example 191A, 1-Benzothiazol-6-yl-3-pyridin-2-yl-imidazolidin-2-one]"
2,> 10000 nM,"O=C1N(c2cnc3[nH]ccc3c2)CCN1c1ccc2ncsc2c1 [Example 187A, 1-Benzothiazol-6-yl-3-(1H-pyrrolo[2,3-b]pyridin-5-yl)-imidazolidin-2-one]"
